Measured values published in ChEMBL document CHEMBL1275492, “In vitro activity of ceftobiprole against pathogens from two phase 3 clinical trials of complicated skin and skin structure infections” (2008).
In brackets after ≈: the same amount, converted by molar mass.

Columns and labels:
Format in all cases: functional
Staphylococcus aureus [1] = test: Antibacterial activity against Staphylococcus aureus obtained from complicated skin and skin structure infections by agar dilution method
Staphylococcus aureus [2] = test: Antibacterial activity against methicillin resistant Staphylococcus aureus obtained from complicated skin and skin structure infections by agar dilution method
Staphylococcus aureus [3] = test: Antibacterial activity against methicillin susceptible Staphylococcus aureus obtained from complicated skin and skin structure infections by agar dilution method
[4] = test system: Staphylococcus epidermidis; test: Antibacterial activity against coagulase-negative Staphylococcus epidermidis obtained from complicated skin and skin structure infections by agar dilution method
[5] = test system: Staphylococcus haemolyticus; test: Antibacterial activity against coagulase-negative Staphylococcus haemolyticus obtained from complicated skin and skin structure infections by agar dilution method
[6] = test system: Staphylococcus lugdunensis; test: Antibacterial activity against coagulase-negative Staphylococcus lugdunensis obtained from complicated skin and skin structure infections by agar dilution method
Staphylococcus hominis = test: Antibacterial activity against coagulase-negative Staphylococcus hominis obtained from complicated skin and skin structure infections by agar dilution method
Staphylococcus capitis = test: Antibacterial activity against coagulase-negative Staphylococcus capitis obtained from complicated skin and skin structure infections by agar dilution method
[7] = test system: Staphylococcus saprophyticus; test: Antibacterial activity against coagulase-negative Staphylococcus saprophyticus obtained from complicated skin and skin structure infections by agar dilution method
Staphylococcus cohnii = test: Antibacterial activity against coagulase-negative Staphylococcus cohnii obtained from complicated skin and skin structure infections by agar dilution method
Mammaliicoccus sciuri = test: Antibacterial activity against coagulase-negative Staphylococcus sciuri obtained from complicated skin and skin structure infections by agar dilution method
Staphylococcus warneri = test: Antibacterial activity against coagulase-negative Staphylococcus warneri obtained from complicated skin and skin structure infections by agar dilution method
[8] = test system: Staphylococcus lugdunensis; test: Antibacterial activity against methicillin-resistant, oxacillin-susceptible, coagulase-negative, mecA-positive Staphylococcus lugdunensis obtained from complicated skin and skin structure infections by agar dilution method
Staphylococcus = test: Antibacterial activity against methicillin-susceptible, coagulase-negative Staphylococcus obtained from complicated skin and skin structure infections by agar dilution method
Enterococcus faecalis = test: Antibacterial activity against Enterococcus faecalis obtained from complicated skin and skin structure infections by agar dilution method
Enterococcus faecium = test: Antibacterial activity against Enterococcus faecium obtained from complicated skin and skin structure infections by agar dilution method
Streptococcus agalactiae = test: Antibacterial activity against Streptococcus agalactiae obtained from complicated skin and skin structure infections by agar dilution method
Streptococcus pyogenes = test: Antibacterial activity against Streptococcus pyogenes obtained from complicated skin and skin structure infections by agar dilution method
[9] = Antibacterial activity against Streptococcus sp. 'group C' obtained from complicated skin and skin structure infections by agar dilution method
[10] = Antibacterial activity against Streptococcus sp. 'group G' obtained from complicated skin and skin structure infections by agar dilution method
[11] = test system: Streptococcus constellatus; test: Antibacterial activity against Streptococcus constellatus obtained from complicated skin and skin structure infections by agar dilution method
Streptococcus mitis = test: Antibacterial activity against Streptococcus mitis obtained from complicated skin and skin structure infections by agar dilution method
[12] = test system: Staphylococcus intermedius; test: Antibacterial activity against Staphylococcus intermedius obtained from complicated skin and skin structure infections by agar dilution method
Aerococcus viridans = test: Antibacterial activity against Aerococcus viridans obtained from complicated skin and skin structure infections by agar dilution method
Bacillus = test: Antibacterial activity against Bacillus spp. obtained from complicated skin and skin structure infections by agar dilution method
Gemella morbillorum = test: Antibacterial activity against Gemella morbillorum obtained from complicated skin and skin structure infections […]
Gemella = test: Antibacterial activity against Gemella spp. obtained from complicated skin and skin structure infections by agar dilution method
Lactococcus lactis = test: Antibacterial activity against Lactococcus lactis obtained from complicated skin and skin structure infections by agar dilution method
Micrococcus = test: Antibacterial activity against Micrococcus spp. obtained from complicated skin and skin structure infections by agar dilution method

## CC(=O)NC[C@H]1CN(c2ccc(N3CCOCC3)c(F)c2)C(=O)O1 [LINEZOLID]
Staphylococcus aureus [1]
  MIC50: 2 µg/mL (≈ 5.93 µM)
  MIC90: 2 µg/mL (≈ 5.93 µM)
Staphylococcus aureus [2]
  MIC50: 2 µg/mL (≈ 5.93 µM)
  MIC90: 2 µg/mL (≈ 5.93 µM)
Staphylococcus aureus [3]
  MIC50: 2 µg/mL (≈ 5.93 µM)
  MIC90: 2 µg/mL (≈ 5.93 µM)
[4]
  MIC50: 1 µg/mL (≈ 2.96 µM)
  MIC90: 1 µg/mL (≈ 2.96 µM)
[5]
  MIC50: 1 µg/mL (≈ 2.96 µM)
  MIC90: 1 µg/mL (≈ 2.96 µM)
[6]
  MIC50: 1 µg/mL (≈ 2.96 µM)
  MIC90: 1 µg/mL (≈ 2.96 µM)
Staphylococcus hominis
  MIC50: 1 µg/mL (≈ 2.96 µM)
  MIC90: 1 µg/mL (≈ 2.96 µM)
Staphylococcus capitis
  MIC50: 1 µg/mL (≈ 2.96 µM)
  MIC90: 1 µg/mL (≈ 2.96 µM)
[7]
  MIC50: 1 µg/mL (≈ 2.96 µM)
  MIC90: 1 µg/mL (≈ 2.96 µM)
Staphylococcus cohnii
  MIC50: 1 µg/mL (≈ 2.96 µM)
  MIC90: 1 µg/mL (≈ 2.96 µM)
Mammaliicoccus sciuri
  MIC50: 1 µg/mL (≈ 2.96 µM)
  MIC90: 1 µg/mL (≈ 2.96 µM)
Staphylococcus warneri
  MIC50: 1 µg/mL (≈ 2.96 µM)
  MIC90: 1 µg/mL (≈ 2.96 µM)
[8]
  MIC50: 1 µg/mL (≈ 2.96 µM)
  MIC90: 1 µg/mL (≈ 2.96 µM)
Staphylococcus
  MIC50: 1 µg/mL (≈ 2.96 µM)
  MIC90: 1 µg/mL (≈ 2.96 µM)
Enterococcus faecalis
  MIC50: 1 µg/mL (≈ 2.96 µM)
  MIC90: 2 µg/mL (≈ 5.93 µM)
Enterococcus faecium
  MIC: 2 µg/mL (≈ 5.93 µM)
  MIC50: 2 µg/mL (≈ 5.93 µM)
Streptococcus agalactiae
  MIC50: 1 µg/mL (≈ 2.96 µM)
  MIC90: 1 µg/mL (≈ 2.96 µM)
Streptococcus pyogenes
  MIC50: 1 µg/mL (≈ 2.96 µM)
  MIC90: 1 µg/mL (≈ 2.96 µM)
[9]
  MIC50: 1 µg/mL (≈ 2.96 µM)
  MIC90: 2 µg/mL (≈ 5.93 µM)
[10]
  MIC: 1 µg/mL (≈ 2.96 µM)
  MIC50: 1 µg/mL (≈ 2.96 µM)
  MIC90: 1 µg/mL (≈ 2.96 µM)
[11]
  MIC50: 1 µg/mL (≈ 2.96 µM)
  MIC90: 1 µg/mL (≈ 2.96 µM)
Streptococcus mitis
  MIC50: ≤ 0.06 µg/mL
  MIC90: 0.06 µg/mL (≈ 0.178 µM)
[12]
  MIC50: ≤ 0.06 µg/mL
  MIC90: 0.06 µg/mL (≈ 0.178 µM)
Aerococcus viridans
  MIC50: 1 µg/mL (≈ 2.96 µM)
  MIC90: 2 µg/mL (≈ 5.93 µM)
Bacillus
  MIC50: 1 µg/mL (≈ 2.96 µM)
  MIC90: 2 µg/mL (≈ 5.93 µM)
Gemella morbillorum
  MIC50: 1 µg/mL (≈ 2.96 µM)
  MIC90: 2 µg/mL (≈ 5.93 µM)
Gemella
  MIC50: 1 µg/mL (≈ 2.96 µM)
  MIC90: 2 µg/mL (≈ 5.93 µM)
Lactococcus lactis
  MIC50: 1 µg/mL (≈ 2.96 µM)
  MIC90: 2 µg/mL (≈ 5.93 µM)
Micrococcus
  MIC50: 1 µg/mL (≈ 2.96 µM)
  MIC90: 2 µg/mL (≈ 5.93 µM)

## CN[C@H](CC(C)C)C(=O)N[C@H]1C(=O)N[C@@H](CC(N)=O)C(=O)N[C@H]2C(=O)N[C@H]3C(=O)N[C@H](C(=O)N[C@H](C(=O)O)c4cc(O)cc(O)c4-c4cc3ccc4O)[C@H](O)c3ccc(c(Cl)c3)Oc3cc2cc(c3O[C@@H]2O[C@H](CO)[C@@H](O)[C@H](O)[C@H]2O[C@H]2C[C@](C)(N)[C@H](O)[C@H](C)O2)Oc2ccc(cc2Cl)[C@H]1O [VANCOMYCIN]
Staphylococcus aureus [1]
  MIC50: 1 µg/mL (≈ 0.69 µM)
  MIC90: 1 µg/mL (≈ 0.69 µM)
Staphylococcus aureus [2]
  MIC50: 1 µg/mL (≈ 0.69 µM)
  MIC90: 1 µg/mL (≈ 0.69 µM)
Staphylococcus aureus [3]
  MIC50: 1 µg/mL (≈ 0.69 µM)
  MIC90: 1 µg/mL (≈ 0.69 µM)
[4]
  MIC50: 1 µg/mL (≈ 0.69 µM)
  MIC90: 2 µg/mL (≈ 1.38 µM)
[5]
  MIC50: 1 µg/mL (≈ 0.69 µM)
  MIC90: 2 µg/mL (≈ 1.38 µM)
[6]
  MIC50: 1 µg/mL (≈ 0.69 µM)
  MIC90: 2 µg/mL (≈ 1.38 µM)
Staphylococcus hominis
  MIC50: 1 µg/mL (≈ 0.69 µM)
  MIC90: 2 µg/mL (≈ 1.38 µM)
Staphylococcus capitis
  MIC50: 1 µg/mL (≈ 0.69 µM)
  MIC90: 2 µg/mL (≈ 1.38 µM)
[7]
  MIC50: 1 µg/mL (≈ 0.69 µM)
  MIC90: 2 µg/mL (≈ 1.38 µM)
Staphylococcus cohnii
  MIC50: 1 µg/mL (≈ 0.69 µM)
  MIC90: 2 µg/mL (≈ 1.38 µM)
Mammaliicoccus sciuri
  MIC50: 1 µg/mL (≈ 0.69 µM)
  MIC90: 2 µg/mL (≈ 1.38 µM)
Staphylococcus warneri
  MIC50: 1 µg/mL (≈ 0.69 µM)
  MIC90: 2 µg/mL (≈ 1.38 µM)
[8]
  MIC50: 1 µg/mL (≈ 0.69 µM)
  MIC90: 2 µg/mL (≈ 1.38 µM)
Staphylococcus
  MIC50: 1 µg/mL (≈ 0.69 µM)
  MIC90: 2 µg/mL (≈ 1.38 µM)
Enterococcus faecalis
  MIC: 1 µg/mL (≈ 0.69 µM)
  MIC50: 1 µg/mL (≈ 0.69 µM)
  MIC90: 2 µg/mL (≈ 1.38 µM)
Enterococcus faecium
  MIC50: 1 µg/mL (≈ 0.69 µM)
Streptococcus agalactiae
  MIC50: 0.5 µg/mL (≈ 0.345 µM)
  MIC90: 0.5 µg/mL (≈ 0.345 µM)
Streptococcus pyogenes
  MIC50: 0.5 µg/mL (≈ 0.345 µM)
  MIC90: 0.5 µg/mL (≈ 0.345 µM)
[9]
  MIC50: 0.5 µg/mL (≈ 0.345 µM)
  MIC90: 1 µg/mL (≈ 0.69 µM)
[10]
  MIC: 0.25 µg/mL (≈ 0.173 µM)
  MIC50: 0.25 µg/mL (≈ 0.173 µM)
  MIC90: 0.5 µg/mL (≈ 0.345 µM)
[11]
  MIC50: 0.5 µg/mL (≈ 0.345 µM)
  MIC90: 0.5 µg/mL (≈ 0.345 µM)
Streptococcus mitis
  MIC50: 1 µg/mL (≈ 0.69 µM)
  MIC90: 1 µg/mL (≈ 0.69 µM)
[12]
  MIC50: 1 µg/mL (≈ 0.69 µM)
  MIC90: 1 µg/mL (≈ 0.69 µM)
Aerococcus viridans
  MIC50: 1 µg/mL (≈ 0.69 µM)
  MIC90: 1 µg/mL (≈ 0.69 µM)
Bacillus
  MIC50: 1 µg/mL (≈ 0.69 µM)
  MIC90: 1 µg/mL (≈ 0.69 µM)
Gemella morbillorum
  MIC50: 1 µg/mL (≈ 0.69 µM)
  MIC90: 1 µg/mL (≈ 0.69 µM)
Gemella
  MIC50: 1 µg/mL (≈ 0.69 µM)
  MIC90: 1 µg/mL (≈ 0.69 µM)
Lactococcus lactis
  MIC50: 1 µg/mL (≈ 0.69 µM)
  MIC90: 1 µg/mL (≈ 0.69 µM)
Micrococcus
  MIC50: 1 µg/mL (≈ 0.69 µM)
  MIC90: 1 µg/mL (≈ 0.69 µM)
